Type in all cases: in vivo
Assay [1] deals with Echinochloa crus-galli. The experiment in a line: Test Example 1: herbicidal effect test by treatment of rice paddy soil (immediately after seeding). In short, it runs like this:
(§1)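 Application occurs immediately after seeding, with diluted emulsion added to paddy water (about 3 cm deep) over puddled, fertilized soil at 120 g active ingredient per 10 ares. Herbicidal rate is calculated from mean dry weight against untreated controls 14 days later.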

Assay [2] has as its system Scirpus juncoides. Described as above. A digest of the protocol: as §1
Assay [3] has as its system broad leaf weeds (Lindernia pyxidaria and Monochoria vaginalis). Described as above. A digest of the protocol: as §1
In assay [4] the test system is Echinochloa crus-galli. The experiment in a line: Test Example 2: herbicidal effect test by treatment during growing period in paddy rice cultivation (seven days after seeding). The note with it: for Herbicidal rate (%) Echinochloa crus-galli: 120 g/10a active ingredient, assessed 14 days after treatment, dry weight vs untreated area. In short, it runs like this:
(§2)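 Sow 30 seeds per species (0–1 cm) into puddled, fertilized paddy soil; keep flooded ~3 cm in greenhouse. Day 7 after seeding: drop water-diluted emulsion, 120 g a.i./10 ares. Harvest 14 d post-treatment; compare dry weight with untreated pots (duplicate).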

Assay [5] relates to Scirpus juncoides. Described as above. The note with it: for Herbicidal rate (%) Scirpus juncoides: 120 g/10a active ingredient, assessed 14 days after treatment, dry weight vs untreated area. A digest of the protocol: as §2
For assay [6], the system named is broad leaf weeds (Lindernia pyxidaria and Monochoria vaginalis). The description is as above. The note with it: for Herbicidal rate (%) Lindernia pyxidaria / Herbicidal rate (%) Monochoria vaginalis: 120 g/10a active ingredient, assessed 14 days after treatment, dry weight vs untreated area. A digest of the protocol:
as §2

For assay [7], the system named is Amaranthus viridis. As to the kind of experiment: Test Example 3: herbicidal effect test by treatment of dry field farming soil (one day after seeding). To be noted: 120 g/10a active ingredient, evaluated 14 days after treatment. The method, then: (§3) This test was conducted in a double system per one agent solution concentration area, and the herbicidal rates (%) were determined by the following equation (Math. 1) on 14 days after the treatment with the agents. Herbicidal Rate (%)={1-(Average Dry Weight (g) of Plant of Treated Area)/(Average Dry Weight (g) of Plant of Untreated Area)}×100 [Math. 1]
(§4) Herbicidal Effect Test by Treatment of Dry Field Farming Soil
(§5) Pots with a size of 36 cm^2 were filled with a dry field farming soil (alluvium). The soil of the top layer of 1 cm and seeds of weeds, namely southern crabgrass, Echinochloa crus-galli, Chenopodium album and Amaranthus viridis, 20 seeds each, were evenly mixed, and the top layer was gently pressed. Emulsions prepared using the compounds in Table 5 below according to Formulation Example 5 were diluted with water one day after seeding, and the water-diluted agent solutions were sprayed to the soil surfaces at a ratio of 100 liters per 10 ares. The converted amount of the applied active ingredient corresponded to 120 g per 10 ares. The herbicidal effects were evaluated by the same standard as that in Test Example 1 on 14 days after the treatment with the agents. […] The compound numbers in Table 5 are the same as those in Table 1 and Table 2 above.

Assay [8] relates to Chenopodium album. Described as above. To be noted: 120 g/10a active ingredient, evaluated 14 days after treatment. As for the experimental part: as §3, §4, §5
Assay [9] deals with Echinochloa crus-galli. Described as above. To be noted: 120 g/10a active ingredient, evaluated 14 days after treatment. The method, then:
as §3, §4, §5

Assay [10] deals with southern crabgrass. The description is as above. To be noted: 120 g/10a active ingredient, evaluated 14 days after treatment. The method, then:
as §3, §4, §5

[11] abbreviates: 120 g/10a active ingredient, dry weight vs untreated area, 14 days after treatment.
Where [12] appears, read: Lindernia pyxidaria, 120 g/10a active ingredient, dry weight vs untreated area, 14 days after treatment.
The mark [13] stands for this setting: Monochoria vaginalis, 120 g/10a active ingredient, dry weight vs untreated area, 14 days after treatment.
Where [14] appears, read: 120 g/10a active ingredient, 14 days after treatment, dry weight vs untreated area.
Where [15] appears, read: Lindernia pyxidaria, 120 g/10a active ingredient, 14 days after treatment, dry weight vs untreated area.
[16] abbreviates: Monochoria vaginalis, 120 g/10a active ingredient, 14 days after treatment, dry weight vs untreated area.
The mark [17] stands for this setting: 120 g/10a, rated 14 days after treatment, paddy soil pots.

Consider `Cc1c(Cc2ccccc2N(C(=O)OC(C)C)S(=O)(=O)C(F)(F)F)c(=O)on1C(C)(C)C` [Compound 1-641], for which the “Herbicidal rate (%) Echinochloa crus-galli” value in assay [1] (setting [11]) and in [4] was 90% each time. Also, the “Herbicidal rate (%) Scirpus juncoides” value in assay [2] (setting [11]) and in assay [5] was 90% each time. Besides, the “Herbicidal rate (%) Lindernia pyxidaria” value in [3] (setting [12]) and in [6] (Lindernia pyxidaria) was 90% each time. Further, the “Herbicidal rate (%) Monochoria vaginalis” value in assay [3] (setting [13]) and in assay [6] (Monochoria vaginalis) was 90% in each case. Besides, in assay [7], the “herbicidal rate, Amaranthus viridis” value came out at 90%. Moreover, the “herbicidal rate, Chenopodium album” value in assay [8] worked out at 90%. The “herbicidal rate, Echinochloa crus-galli” value in [9] is 90%. Also, the “herbicidal rate, southern crabgrass” value in assay [10] amounted to 90%.
With `Cc1c(Cc2ccccc2N(C(=O)OCC(C)C)S(=O)(=O)C(F)(F)F)c(=O)on1C(C)C` [Compound 1-667], the “Herbicidal rate (%) Echinochloa crus-galli” value in assay [1] (setting [11]) and in assay [4] was 90% throughout. The “Herbicidal rate (%) Scirpus juncoides” value in [2] (setting [11]) and in [5] was 90% throughout. Besides, the “Herbicidal rate (%) Lindernia pyxidaria” value in assay [3] (setting [12]) and in [6] (Lindernia pyxidaria) was 90% throughout. The “Herbicidal rate (%) Monochoria vaginalis” value in [3] (setting [13]) and in [6] (Monochoria vaginalis) was 90% each time. The “herbicidal rate, Amaranthus viridis” value in [7] came out at 80%. Besides, in [8], the “herbicidal rate, Chenopodium album” value was found to be 90%. Moreover, the “herbicidal rate, Echinochloa crus-galli” value in assay [9] came out at 90%. In addition, the “herbicidal rate, southern crabgrass” value in assay [10] worked out at 80%.
With `CCn1oc(=O)c(Cc2ccccc2N(S(=O)(=O)C(F)(F)F)S(=O)(=O)C(F)(F)F)c1C` [Compound 1-960], the “Herbicidal rate (%) Echinochloa crus-galli” value in [1] (setting [11]) was 80%; in assay [4], 70%. Besides, the “Herbicidal rate (%) Scirpus juncoides” value in assay [2] (setting [11]) is given as 80%; in assay [5], 70%. Further, the “Herbicidal rate (%) Lindernia pyxidaria” value in [3] (setting [12]) and in assay [6] (Lindernia pyxidaria) was 70% in each case. In addition, the “Herbicidal rate (%) Monochoria vaginalis” value in [3] (setting [13]) and in [6] (Monochoria vaginalis) was 70% in each case. In addition, in assay [7], the “herbicidal rate, Amaranthus viridis” value stood at 0%. Further, the “herbicidal rate, Chenopodium album” value in [8] came out at 0%. Moreover, in [9], the “herbicidal rate, Echinochloa crus-galli” value came to 100%. In [10], the “herbicidal rate, southern crabgrass” value worked out at 80%.
For the molecule `CCCCn1oc(=O)c(Cc2ccccc2N(S(=O)(=O)C(F)(F)F)S(=O)(=O)C(F)(F)F)c1C` [Compound 1-969], the “Herbicidal rate (%) Echinochloa crus-galli” value in assay [1] (setting [11]) and in assay [4] was 100% each time. Moreover, the “Herbicidal rate (%) Scirpus juncoides” value in assay [2] (setting [11]) and in assay [5] was 90% throughout. The entries for the “Herbicidal rate (%) Lindernia pyxidaria” value in assay [3] (setting [12]) and in assay [6] (Lindernia pyxidaria) were 100% and 60%, respectively. Further, the figures for the “Herbicidal rate (%) Monochoria vaginalis” value in assay [3] (setting [13]) and in [6] (Monochoria vaginalis) were 80% and 90%, respectively. Moreover, the “herbicidal rate, Amaranthus viridis” value in assay [7] was 40%. Further, the “herbicidal rate, Chenopodium album” value in [8] was 40%. For the same molecule, the “herbicidal rate, Echinochloa crus-galli” value in assay [9] came to 90%. In addition, the “herbicidal rate, southern crabgrass” value in [10] is 80%.
On to `CCC(C)Cn1oc(=O)c(Cc2ccccc2N(S(=O)(=O)C(F)(F)F)S(=O)(=O)C(F)(F)F)c1C` (stereo not drawn) [Compound 1-972], for which the “Herbicidal rate (%) Echinochloa crus-galli” value in [1] (setting [11]) and in [4] was 100% in each case. Moreover, the “Herbicidal rate (%) Scirpus juncoides” value in assay [2] (setting [11]) is on record as 100%; in assay [5] it was 90%. Besides, the “Herbicidal rate (%) Lindernia pyxidaria” value is on record as 100% in assay [3] (setting [12]) and 80% in assay [6] (Lindernia pyxidaria). Further, the “Herbicidal rate (%) Monochoria vaginalis” value in [3] (setting [13]) and in [6] (Monochoria vaginalis) was 100% throughout. The “herbicidal rate, Amaranthus viridis” value in assay [7] was 100%. In addition, the “herbicidal rate, Chenopodium album” value in assay [8] was found to be 100%. Moreover, in assay [9], the “herbicidal rate, Echinochloa crus-galli” value is given as 90%. The “herbicidal rate, southern crabgrass” value in assay [10] is on record as 90%.
For `Cc1c(Cc2ccccc2N(S(=O)(=O)C(F)(F)F)S(=O)(=O)C(F)(F)F)c(=O)on1Cc1ccccc1` [Compound 1-1011], the “Herbicidal rate (%) Echinochloa crus-galli” value worked out at 90% in assay [1] (setting [11]) and 40% in [4]. Besides, the “Herbicidal rate (%) Scirpus juncoides” value in [2] (setting [11]) and in assay [5] was 90% in each case. Moreover, the “Herbicidal rate (%) Lindernia pyxidaria” value in [3] (setting [12]) and in assay [6] (Lindernia pyxidaria) was 90% each time. For the same molecule, the “Herbicidal rate (%) Monochoria vaginalis” value in [3] (setting [13]) and in [6] (Monochoria vaginalis) was 90% throughout. The “herbicidal rate, Amaranthus viridis” value in assay [7] is given as 40%. Moreover, the “herbicidal rate, Chenopodium album” value in assay [8] was 40%. Moreover, the “herbicidal rate, Echinochloa crus-galli” value in assay [9] stood at 90%. Besides, the “herbicidal rate, southern crabgrass” value in assay [10] came to 80%.
With `Cc1c(Cc2ccccc2N(S(=O)(=O)C(F)(F)F)S(=O)(=O)C(F)(F)F)c(=O)on1CCCc1ccccc1` [Compound 1-1048], the “Herbicidal rate (%) Echinochloa crus-galli” value in assay [1] (setting [11]) and in [4] was 90% in each case. Besides, the “Herbicidal rate (%) Scirpus juncoides” value in assay [2] (setting [11]) was 80%; in assay [5], 40%. For the same molecule, the results for the “Herbicidal rate (%) Lindernia pyxidaria” value in assay [3] (setting [12]) and in [6] (Lindernia pyxidaria) were 80% and 60%, respectively. For the same molecule, the “Herbicidal rate (%) Monochoria vaginalis” value in assay [3] (setting [13]) and in assay [6] (Monochoria vaginalis) was 60% throughout. For the same molecule, the “herbicidal rate, Amaranthus viridis” value in assay [7] was 40%. Besides, in [8], the “herbicidal rate, Chenopodium album” value worked out at 40%. The “herbicidal rate, Echinochloa crus-galli” value in assay [9] was determined as 40%. In addition, the “herbicidal rate, southern crabgrass” value in assay [10] worked out at 0%.
Consider `Cc1c(Cc2ccccc2N(S(=O)(=O)C(F)(F)F)S(=O)(=O)C(F)(F)F)c(=O)on1C1CCc2ccccc21` (stereo not drawn) [Compound 1-1049], for which the “Herbicidal rate (%) Echinochloa crus-galli” value is recorded as 90% in assay [1] (setting [14]) and 80% in assay [4]. Further, the “Herbicidal rate (%) Scirpus juncoides” value in [2] (setting [14]) is given as 90%; in assay [5], 70%. The entries for the “Herbicidal rate (%) Lindernia pyxidaria” value in assay [3] (setting [15]) and in [6] (Lindernia pyxidaria) were 90% and 60%, respectively. In addition, the “Herbicidal rate (%) Monochoria vaginalis” value amounted to 80% in assay [3] (setting [16]) and 70% in assay [6] (Monochoria vaginalis). Besides, the “herbicidal rate, Amaranthus viridis” value in assay [7] is recorded as 50%. Besides, the “herbicidal rate, Chenopodium album” value in assay [8] came to 50%. In assay [9], the “herbicidal rate, Echinochloa crus-galli” value came out at 90%. In assay [10], the “herbicidal rate, southern crabgrass” value is given as 80%.
For the molecule `Cc1c(Cc2ccccc2N(S(=O)(=O)C(F)(F)F)S(=O)(=O)C(F)(F)F)c(=O)on1CC1(C)CO1` (stereo not drawn) [Compound 1-1051], the results for the “Herbicidal rate (%) Echinochloa crus-galli” value in assay [1] (setting [14]) and in assay [4] were 80% and 90%, respectively. Moreover, the entries for the “Herbicidal rate (%) Scirpus juncoides” value in assay [2] (setting [14]) and in assay [5] were 100% and 90%, respectively. Further, the “Herbicidal rate (%) Lindernia pyxidaria” value was determined as 60% in [3] (setting [15]) and 40% in assay [6] (Lindernia pyxidaria). Further, the “Herbicidal rate (%) Monochoria vaginalis” value in assay [3] (setting [16]) and in assay [6] (Monochoria vaginalis) was 80% throughout. For the same molecule, the “herbicidal rate, Amaranthus viridis” value in assay [7] amounted to 80%. In assay [8], the “herbicidal rate, Chenopodium album” value is given as 60%. In addition, the “herbicidal rate, Echinochloa crus-galli” value in [9] was 80%. The “herbicidal rate, southern crabgrass” value in [10] was determined as 80%.
In the case of `Cc1c(Cc2ccccc2N(S(=O)(=O)C(F)(F)F)S(=O)(=O)C(F)(F)F)c(=O)on1S(=O)(=O)C(C)C` [Compound 1-1064], the “Herbicidal rate (%) Echinochloa crus-galli” value in [1] (setting [14]) is 90%. Besides, the “Herbicidal rate (%) Scirpus juncoides” value in assay [2] (setting [14]) was found to be 90%. Moreover, in [3] (setting [15]), the “Herbicidal rate (%) Lindernia pyxidaria” value was 90%. Further, the “Herbicidal rate (%) Monochoria vaginalis” value in assay [3] (setting [16]) is given as 90%. Further, the “herbicidal rate, Echinochloa crus-galli” value in assay [4] (setting [17]) is given as 70%; in assay [9] it was 100%. Moreover, in [5] (setting [17]), the “herbicidal rate, Scirpus juncoides” value worked out at 90%. For the same molecule, in [6] (Lindernia pyxidaria, 120 g/10a, rated 14 days after treatment, paddy soil pots), the “herbicidal rate, Lindernia pyxidaria” value is 50%. Besides, in assay [6] (Monochoria vaginalis, 120 g/10a, rated 14 days after treatment, paddy soil pots), the “herbicidal rate, Monochoria vaginalis” value was 80%. The “herbicidal rate, Amaranthus viridis” value in assay [7] is reported as 80%. Further, in [8], the “herbicidal rate, Chenopodium album” value was 80%. Also, the “herbicidal rate, southern crabgrass” value in assay [10] came to 60%.
